Source: PubChem BioAssay AID248 (DTP/NCI, 2004)
Toxic doses and inconclusive results are not listed. Cut-off read from the data, not from the text of the source: active = T/C of 150% or more; inactive = T/C below 125%.

System: L1210 leukemia ip in BDF1 mice, survival T/C
Assay: NCI In Vivo Anticancer Drug Screen. Data for tumor model L1210 Leukemia (intraperitoneal) in B6D2F1 (BDF1) mice
Details: endpoint: mean survival time, higher = longer survival
In short: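 Transplantable tumor model; survival measured in treated vs vehicle control mice. Value = treated/control.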

[1] = dose: 10.0 mg/kg/injection, schedule: Q01DX001 (ip), vehicle: saline
[2] = dose: 100.0 mg/kg/injection, schedule: Q01DX001 (ip), vehicle: saline
[3] = dose: 50.0 mg/kg/injection, schedule: Q01DX001 (ip), vehicle: saline
[4] = dose: 200.0 mg/kg/injection, schedule: Q01DX001 (ip), vehicle: saline
[5] = dose: 400.0 mg/kg/injection, schedule: Q01DX001 (ip), vehicle: saline
[6] = dose: 100.0 mg/kg/injection, schedule: Q04DX003 (ip), vehicle: Klucel (hydroxypropylcellulose) (HPC)
[7] = dose: 200.0 mg/kg/injection, schedule: Q04DX003 (ip), vehicle: Klucel (hydroxypropylcellulose) (HPC)
[8] = dose: 400.0 mg/kg/injection, schedule: Q04DX003 (ip), vehicle: Klucel (hydroxypropylcellulose) (HPC)
[9] = dose: 100.0 mg/kg/injection, schedule: Q04DX003 (ip), vehicle: saline
[10] = dose: 200.0 mg/kg/injection, schedule: Q04DX003 (ip), vehicle: saline
[11] = dose: 400.0 mg/kg/injection, schedule: Q04DX003 (ip), vehicle: saline

Measured: T/C

CCN(CC)CCSC(=S)N1c2ccccc2Sc2ccccc21
inactive: dose: 17.5 mg/kg/injection, schedule: Q01DX009 (ip), vehicle: saline 90 % of control | dose: 17.5 mg/kg/injection, schedule: Q04DX003 (ip), vehicle: Klucel (hydroxypropylcellulose) (HPC) 102 % of control | dose: 35.0 mg/kg/injection, schedule: Q01DX009 (ip), vehicle: saline 96 % of control | dose: 35.0 mg/kg/injection, schedule: Q04DX003 (ip), vehicle: Klucel (hydroxypropylcellulose) (HPC) 93 % of control | dose: 70.0 mg/kg/injection, schedule: Q01DX009 (ip), vehicle: saline 87 % of control | dose: 70.0 mg/kg/injection, schedule: Q04DX003 (ip), vehicle: Klucel (hydroxypropylcellulose) (HPC) 96 % of control | dose: 140.0 mg/kg/injection, schedule: Q01DX009 (ip), vehicle: saline 91 % of control | dose: 140.0 mg/kg/injection, schedule: Q04DX003 (ip), vehicle: Klucel (hydroxypropylcellulose) (HPC) 98 % of control | dose: 280.0 mg/kg/injection, schedule: Q04DX003 (ip), vehicle: Klucel (hydroxypropylcellulose) (HPC) 95 % of control

O=C1c2ccccc2-c2ccc(N3C(=O)c4ccccc4C3=O)cc21
inactive: dose: 16.5 mg/kg/injection, schedule: Q01DX001 (ip), vehicle: saline with Tween-80 88 % of control | dose: 37.5 mg/kg/injection, schedule: Q01DX001 (ip), vehicle: saline with Tween-80 92 % of control | dose: 50.0 mg/kg/injection, schedule: Q01DX001 (ip), vehicle: saline with Tween-80 95 % of control | dose: 100.0 mg/kg/injection, schedule: Q01DX001 (ip), vehicle: saline with Tween-80 91 % of control

O=[N+]([O-])c1c(Cl)ccc2nsnc12
inactive: dose: 12.5 mg/kg/injection, schedule: Q04DX003 (ip), vehicle: Klucel (hydroxypropylcellulose) (HPC) 96 % of control | dose: 25.0 mg/kg/injection, schedule: Q04DX003 (ip), vehicle: Klucel (hydroxypropylcellulose) (HPC) 93 % of control

CCCCN=C(N)N=C(N)N
inactive: dose: 5.0 mg/kg/injection, schedule: Q01DX001 (ip), vehicle: saline 107 % of control | [1] 92 % of control | dose: 20.0 mg/kg/injection, schedule: Q01DX001 (ip), vehicle: saline 97 % of control | dose: 40.0 mg/kg/injection, schedule: Q01DX001 (ip), vehicle: saline 102 % of control | dose: 80.0 mg/kg/injection, schedule: Q01DX001 (ip), vehicle: saline 105 % of control | [2] 109 % of control

CC(NP1(=O)OCC(C)(N)CO1)c1ccccc1 (stereo not drawn)
inactive: [3] 108 % of control | [2] 102 % of control | [4] 106 % of control | [5] 93 % of control

O=C(O)CN(Cc1ccccc1)Sc1ccccc1[N+](=O)[O-]
inactive: dose: 50.0 mg/kg/injection, schedule: Q01DX009 (ip), vehicle: other 98 % of control | dose: 100.0 mg/kg/injection, schedule: Q01DX009 (ip), vehicle: other 91 % of control | dose: 100.0 mg/kg/injection, schedule: Q04DX003 (ip), vehicle: other 98 % of control | dose: 200.0 mg/kg/injection, schedule: Q04DX003 (ip), vehicle: other 96 % of control

Cc1ccc(S(=O)N(OCc2ccccc2)S(=O)c2ccc(C)cc2)cc1 (stereo not drawn)
inactive: dose: 100.0 mg/kg/injection, schedule: Q04DX002 (ip), vehicle: other 100 % of control | dose: 200.0 mg/kg/injection, schedule: Q04DX002 (ip), vehicle: other 100 % of control | dose: 400.0 mg/kg/injection, schedule: Q04DX002 (ip), vehicle: other 100 % of control

CC(CCF)C(N)C(=O)O (stereo not drawn)
inactive: dose: 3.0 mg/kg/injection, schedule: Q01DX009 (ip), vehicle: saline 98 % of control | dose: 6.0 mg/kg/injection, schedule: Q01DX009 (ip), vehicle: saline 100 % of control | [1] 91 % of control | dose: 12.0 mg/kg/injection, schedule: Q01DX009 (ip), vehicle: saline 102 % of control | dose: 12.5 mg/kg/injection, schedule: Q01DX009 (ip), vehicle: saline 100 % of control | dose: 19.0 mg/kg/injection, schedule: Q01DX001 (ip), vehicle: saline 95 % of control | dose: 37.5 mg/kg/injection, schedule: Q01DX001 (ip), vehicle: saline 113 % of control | dose: 38.0 mg/kg/injection, schedule: Q01DX001 (ip), vehicle: saline 91 % of control

COC(=O)c1cc(Cl)ccc1OCC(=O)Nc1ccc([N+](=O)[O-])cc1
inactive: dose: 100.0 mg/kg/injection, schedule: Q01DX009 (ip), vehicle: Klucel (hydroxypropylcellulose) (HPC) 98 % of control | [6] 102 % of control | dose: 200.0 mg/kg/injection, schedule: Q01DX009 (ip), vehicle: Klucel (hydroxypropylcellulose) (HPC) 93 % of control | [7] 95 % of control | dose: 400.0 mg/kg/injection, schedule: Q01DX009 (ip), vehicle: Klucel (hydroxypropylcellulose) (HPC) 105 % of control | [8] 103 % of control

CC1CN=C(c2ccc(N)cc2)S1 (stereo not drawn)
inactive: dose: 87.0 mg/kg/injection, schedule: Q04DX003 (ip), vehicle: Klucel (hydroxypropylcellulose) (HPC) 94 % of control | dose: 175.0 mg/kg/injection, schedule: Q04DX003 (ip), vehicle: Klucel (hydroxypropylcellulose) (HPC) 105 % of control

O=S(=O)(Cl)OC(CCl)C(OS(=O)(=O)Cl)C(OS(=O)(=O)Cl)C(CCl)OS(=O)(=O)Cl (stereo not drawn)
inactive: dose: 100.0 mg/kg/injection, schedule: Q04DX003 (ip), vehicle: saline with Tween-80 102 % of control | dose: 200.0 mg/kg/injection, schedule: Q04DX003 (ip), vehicle: saline with Tween-80 97 % of control | dose: 400.0 mg/kg/injection, schedule: Q04DX003 (ip), vehicle: saline with Tween-80 114 % of control

CC(=O)Nc1cccc(C(=O)O)c1O
inactive: [2] 100 % of control | [4] 105 % of control | [5] 100 % of control

OCC(O)c1ccccn1 (stereo not drawn)
inactive: [9] 107 % of control | [10] 94 % of control | [11] 94 % of control

CCC1CC2c3cc(OC)c(OC)cc3CCN2CC1(O)Cc1nccc2c1CCCC2 (stereo not drawn)
inactive: dose: 100.0 mg/kg/injection, schedule: Q01DX001 (ip), vehicle: carboxymethylcellulose (CMC) 104 % of control | dose: 200.0 mg/kg/injection, schedule: Q01DX001 (ip), vehicle: carboxymethylcellulose (CMC) 103 % of control | dose: 400.0 mg/kg/injection, schedule: Q01DX001 (ip), vehicle: carboxymethylcellulose (CMC) 95 % of control

Cc1cc(=O)[nH]c2c(OCOc3cccc4c(C)cc(=O)[nH]c34)cccc12
inactive: [6] 97 % of control | [7] 100 % of control | [8] 94 % of control

CNC(=S)N/N=C/c1cnccn1
inactive: [3] 100 % of control | [2] 100 % of control | [4] 104 % of control

C1CCC(C2CCC(C3CCCCC3)CC2)CC1 (stereo not drawn)
inactive: [2] 90 % of control | [4] 90 % of control

COc1cc2c(cc1OC(C)=O)C(=O)CCCC2
inactive: [6] 91 % of control | [7] 97 % of control | [8] 96 % of control

NC(=O)Nc1ccc(/C=C2\C=Cc3ccccc32)cc1
inactive: dose: 75.0 mg/kg/injection, schedule: Q01DX001 (ip), vehicle: saline 96 % of control | dose: 150.0 mg/kg/injection, schedule: Q01DX001 (ip), vehicle: saline 93 % of control | dose: 300.0 mg/kg/injection, schedule: Q01DX001 (ip), vehicle: saline 94 % of control

CN(C)CCS(=O)(=O)O
inactive: [9] 104 % of control | [10] 104 % of control | [11] 104 % of control

C=CCN1/C(=C\C=C\c2ccc3cc(C)ccc3[n+]2CC=C)C=Cc2cc(C)ccc21
inactive: dose: 1.17 mg/kg/injection, schedule: Q01DX001 (ip), vehicle: steriod suspending solution 111 % of control
